Laboratory results taken from patent US7390783B2, “Charged phospholipid compositions and methods for their use” (Ottawa Heart Institute Research Corporation, priority 2000, dated 2008).
Entries after “also recorded” stand apart in the source; their conditions may differ.

Experiments:
HDL, LDL and VLDL = experiment: Lipoprotein surface charge after injection of PI or PC vesicles into rabbits (agarose gel electrophoresis); assay type: in vivo, rabbit
Protocol: 1-palmitoyl-2-oleoyl-phosphatidylcholine (PC) and 1-palmitoyl-2-oleoyl phosphatidylinositol (PI) vesicles are prepared by drying to completion 40 μmol of each lipid into a 12×75 mm culture tube under N2. The lipids are solubilized in 3 mL of sterile saline comprising 150 mM sodium chloride (pH 7.2) by sonication for 1 minute at constant duty cycle. The vesicles are incubated at 37° C. for 10 minutes and then sonicated at a high output for 4 minutes in 10° C. water bath under N2. In order to determine the rate of clearance of cholesterol from the test animals (rabbits), a radioactive tracer is added to the vesicle preparations prior to injection into the rabbit. 200 μL of 1 μCi/μmL [^3H]-FC is dried into a 12×75 mm culture tube with 40 μmol of PI or POPC. 3 ml of PBS is added to the dried lipids and the mixture is sonicated as described above. This tracer/vesicle preparation is injected and then 5 min later, the PI or PC vesicles were injected and blood is sampled as described below.
Male New Zealand white rabbits (3.5-4.0 kg) are fasted for 12 hours prior to injection and remain fasted until after data for the final time point is taken. Rabbits have free access to water during this time. A catheter is inserted into the marginal ear vein and blood samples are collected into tubes containing 7.5% (K3) EDTA solution at the desired time points. A pre-injection blood sample is taken and the vesicle solution of either PI (n=4), or PC (n=2) or saline (n=1) is injected into the marginal ear vein. A sample of blood is removed at 10, 30 min, 1, 3, 6 and 24 h after the injection. All blood samples are placed on ice and then centrifuged at 3000 rpm for 15 min at 4° C. to separate the plasma. In order to ensure that lecithin:cholesterol acyl transferase (LCAT) is inhibited in the stored plasma, iodoacetamide (150 mM) is added to plasma samples as taught by Guerin et al. (1994).
Lipoprotein fractions are isolated by sequential ultracentrifugation (VLDL+IDL, d<1.019 g/mL; LDL, d=1.019-1.063 g/mL; and HDL, d=1.063-1.21 g/mL) as known to one of skill in the art, and lipoprotein lipid composition (total cholesterol, free cholesterol (FC), and triglyceride (TG) concentrations) are determined enzymatically using kits from Roche Diagnostic (Laval, PQ). An aliquot of each lipoprotein isolated is dialysed into PBS and its surface charge characteristics were determined by electrophoresis on pre-cast 0.5% agarose gels using the procedure of Sparks and Phillips (1992).
Referring now to FIG. 1, there is illustrated the effect of injection of PI and PC vesicles on the estimated surface potential of HDL, LDL, and VLDL proteins in vivo. […] PC, which is a neutral phospholipid, may also bind to the lipoproteins. However since PC is a neutral phospholipid, no significant change in the migration of the lipoproteins is observed. The increased migratory property of lipoproteins in a gel peaks following injection of PI and returns to normal by about 24 hours. […] Similarly, the VLDL fraction is estimated to have an initial surface potential of about −8.8 mV, which increases to about −11.2 mV after 10 minutes. LDL is estimated to have an initial surface potential of about −3.9 mV, and peaks about 60 min after the PI injection at about −8.0 mV.

HEPG2 cells = experiment: Cellular cholesterol uptake from PI-enriched plasma or lipoproteins; assay type: cell-based
Excerpt: Almost complete inhibition of the enzyme that produces CE parallelled major increases in the amount of this lipid in VLDL particles. […] Cholesterol transport into VLDL may instead be governed by the charge and structural characteristics of plasma lipoproteins, which may regulate interfacial interactions with specific receptors and cholesterol storage depots on cell surfaces. […] Without wishing to be limited by theory, it is considered that the enhanced uptake of cholesterol from PI-enriched HDL is not facilitated by a scavenger receptor-BI mediated pathway but is associated with a novel protein kinase C dependent uptake pathway. Therefore, it is considered that control of lipoprotein charge by the administration of charged compounds will allow for the manipulation of FC and CE influx/efflux from cell surfaces and the selective control of plasma cholesterol metabolism.

[1] = PI mass measurements in HDL after injection of PI vesicles; assay type: in vivo, rabbit
Excerpt: The clearance of PI from the different lipoproteins may have been due to either a lipoprotein-cellular transfer or to a selective hydrolysis by a charged phospholipid specific phospholipase.

- level of PI in HDL, of the total HDL-PL ([1]; after 10 min, initially below detection levels): up to 30%
- HDL-PI content, of the HDL-PL ([1]; by 3 h): 5-10%
Structure (SMILES): CCCCCCCC/C=C\CCCCCCCC(=O)O[C@H](COC(=O)CCCCCCCCCCCCCCC)COP(=O)(O)O[C@@H]1[C@H](O)[C@H](O)[C@@H](O)[C@H](O)[C@H]1O [PI, 1-palmitoyl-2-oleoyl phosphatidylinositol]
- HDL surface potential, peak negative charge (HDL, LDL and VLDL; about 10 minutes after injection, background about −12.2 mV prior to injection, estimated from gel migration): about −18.0 mV
- LDL surface potential, peak (HDL, LDL and VLDL; about 60 min after injection, initial about −3.9 mV, estimated): about −8.0 mV
- VLDL surface potential (HDL, LDL and VLDL; after 10 minutes, initial about −8.8 mV, estimated): about −11.2 mV
- time for increased lipoprotein migration to return to normal (HDL, LDL and VLDL; after injection): about 24 hours
- effect on lipoprotein net negative surface charge / migration of HDL, LDL and VLDL into agarose gel (HDL, LDL and VLDL; intravenous injection of vesicles, fasted rabbit): significant increase; also recorded: increased migration of all lipoprotein fractions
- effect on cellular cholesterol uptake, PI enrichment of LDL (HEPG2 cells): does not
- effect on cellular cholesterol uptake, PI-enrichment of plasma or HDL (HEPG2 cells): stimulates cellular cholesterol uptake
